The target in assay [1] is T1, IDO1 (Homo sapiens, UniProt P14902). The assay is described as follows: IDO1 HEK293 cellular assay. The format is cell-based. The settings on record: HEK293 cells transfected with Flag-IDO1 vector, 20-24 hours, fluorescence readout. The method, then: IDO1 HEK293 Cellular Assay
Compounds to be tested were serially diluted in ten 3-fold steps in DMSO starting from 10 mM DMSO stocks. Compound dilutions or DMSO alone were then dispensed from the dilution plate into a Greiner black 384-well assay plate (catalog #781086) using an Echo 550 acoustic liquid handler (Labcyte).
HEK293 cell pellets were resuspended to 5×10^5 cells/mL in complete HEK293 culture media (89% DMEM, 10% FBS, 1% penicillin/streptomycin). Suspended cells (2 mL) were dispensed into each well of a 6-well Corning plate (Catalog # 3516). Cells were allowed to attach and were incubated for 20 hours at 37° C. in a 5% CO2 incubator. Flag-IDO1 vector (Genscript True ORF Gold, 2 ug) in 150 uL of Opti-MEM medium was added to each well of a Corning 24 well plate (Cat # 3527) and incubated for 5 minutes at room temperature. To each well of the 24-well plate was added […] Lipofectamine 2000 (Gibco) and the plate incubated at room temperature for 20-30 minutes. To each well of attached cells in the 6-well plate, […] of the transfection mix from the 24-well plate was gently added to each well and IDO1 protein was allowed to express for 24-30 hours at 37 degrees Celsius in a 5% CO2 incubator.
Media was removed from the cells which were then washed with 2 mL Dulbecco's phosphate-buffered saline (DPBS). After removal of DPBS, 0.5 mL of TrypLE (Gibco) was added and incubated at 5 minutes until cells lift from the surface of the wells. Complete HEK293 culture media (4 mL) was added to each well and cells were collected and pooled into a conical tube. Cells were pelleted at 200×g for 5 minutes and resuspended in an equal volume of complete DMEM medium. Cells were diluted to 4×10^5 cells per mL in complete HEK293 media. L-Tryptophan was added to added to give a final concentration of […]. The diluted transfected cells […] or nontransfected cells […] were dispensed into wells of Greiner black 384-well assay plates (catalog #781086) containing previously diluted compounds. The plate is briefly mixed and centrifuged at 200×g for 10 seconds to collect cells at the bottom of the plate. Plates were covered and incubated for 20-24 hours at 37 degrees C. in a 5% CO2 incubator. Afterwards […] of 0.5 M methyl isonipecotate in dimethyl sulfoxide was added to each well, mixed, sealed, and centrifuged at 500 rpm for 10 seconds. Plates were incubated at 37 degrees in a 5% CO2 incubator overnight to develop fluoresence. The plates are allowed to cool and then centrifuged for 1 minute at 1000×g. The resulting fluoresence was measured in an Envision plate reader (Perkin Elmer) with a 400/25 nm excitation filter and an 510/20 nm emission filter.
The fluoresence intensity of each well was corrected for the background observed in wells with untransfected cells and was expressed as a fraction of the intensity observed in wells of IDO1 transfected cells and DMSO only. Potencies were calculated by linear least squares fit to the four parameter logistic IC50 equation.

In assay [2] the target is T1, IDO1. The assay is described as follows: IDO1 human whole blood assay. The format is cell-based. On the set-up: Human whole blood was drawn in sodium heparin coated tubes from healthy internal donors; from tissue; host or cells: human whole blood from healthy donors, stimulated with LPS and IFNγ. The settings on record: LPS and IFNγ 100 ng/mL, 18 h, kynurenine by LC/MS/MS. On the procedure: IDO1Human Whole Blood Assay
Compounds to be tested were serially diluted in ten 3-fold steps in DMSO starting from 10 mM. […] LPS and IFNγ was prepared in RPMI to a 10× of final conc. (1000 ng/mL), final concentration is 100 ng/mL.
Human whole blood was drawn in sodium heparin coated tubes from healthy internal donors. […] of blood was transferred to each of the wells of a v-bottom 96 well plate. […] of compound was transferred from intermediate dilution plate, and incubated for 15 min. 30 μL from stimulants was then transferred to blood and mixed thoroughly. Plate was covered with breathable membrane and incubated at 37° C. for overnight (18 h).
On day 2 isotope labeled standard of kynurenine and tryptophan was made in water at 10× concentration and […] was added to the blood at […] final concentration. The assay plates were centrifuged at 300×G for 10 min with no brake to separate plasma from red blood cells. […] of plasma samples was removed without disturbing red blood cells. Plasma was diluted with RPMI in 1:1 ratio and proteins were precipitated out with two volume of Acetonitrile. The plates was centrifuged at 4000×G for 60 min. 20 mL of supernatant was carefully transferred to a 384 well plate contain 40 mL of 0.1% formic acid in water and analyzed by LC/MS/MS.
LC/MS/MS analyses were performed using Thermo Fisher's LX4-TSQ Quantum Ultra system. This system consists of four Agilent binary high-performance liquid chromatography (HPLC) pumps and a TSQ Quantum Ultra triple quadruple MS/MS instrument. For each sample, […] were injected onto an Atlantis T3 column (2.1 mm×150 mm, […]) from Waters. The mobile phase gradient pumped at 0.8 mL/min was used to elute the analytes from the column at 25° C. […] Mobile phase A consisted of 0.1% formic acid in water. Mobile phase B consisted of 0.1% of formic acid in acetonitrile. Data was acquired in positive mode using a HESI interface. The operational parameters for the TSQ Quantum Ultra instrument were a spray voltage of 4000 V, capillary temperature of 380° C., vaporizer temperature 400° C., shealth gas 60 arbitrary units, Aux gas 20 arbitrary units, tube lens 85 and collision gas 1.2 mTorr. […] The peak area was integrated by Xcalibur Quan software. The ratios between the kynurenine generated in the reaction and 2D6-Kynurenine spiked-in internal standard were used to generate percentage inhibition and IC50 values. Compounds were titrated and IC50′s were calculated by 4 parameter sigmoidal curve fitting formula.

T1 sequence (P14902 whole entry): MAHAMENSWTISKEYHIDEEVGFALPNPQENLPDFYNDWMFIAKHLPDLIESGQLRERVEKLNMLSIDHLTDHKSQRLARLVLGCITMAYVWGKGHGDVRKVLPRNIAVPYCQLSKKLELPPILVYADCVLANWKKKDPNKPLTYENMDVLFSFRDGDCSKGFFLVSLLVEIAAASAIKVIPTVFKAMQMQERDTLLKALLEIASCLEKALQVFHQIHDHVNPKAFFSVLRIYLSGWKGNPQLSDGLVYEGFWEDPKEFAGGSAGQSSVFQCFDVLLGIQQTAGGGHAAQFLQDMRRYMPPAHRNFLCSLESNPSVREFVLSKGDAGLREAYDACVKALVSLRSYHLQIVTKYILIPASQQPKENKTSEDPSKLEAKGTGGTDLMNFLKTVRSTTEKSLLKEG

For `O=C(Nc1ccc(C2(C(=O)Nc3ccc(F)cc3)CCC2)cn1)C1CCCCC1` [Example 15, N-(5-{1-[(4-fluorophenyl)carbamoyl]cyclobutyl}pyridin-2-yl) cyclohexanecarboxamide], the IC50 stood at 7 nM against IDO1 [1] and 2010 nM against IDO1 [2].

Source of the values: US11111232B2, “Substituted cyclobutylpyridine and cyclobutylpyrimidine compounds as indoleamine 2,3-dioxygenase (IDO) inhibitors” (MERCK SHARP & DOHME CORP., priority 2017, dated 2021).
